Legend:
Type in all cases: in vivo
[1] = tested on: Echinochloa crus-galli (L.) P. Beauv. var. formosensis Ohwi; experiment: Test for Herbicidal Effect in Flooding Treatment (#2), ECHDG at 2-2.5 leaf stage; conditions: for ECHDG (2-2.5L) #2 herbicidal effect (growth inhibition grade): flooding treatment at 2-2.5 leaf stage, dose 0.2 kg/ha, visual observation on day 21
Summary of the method: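 Flooded muddy soil was seeded with the weed, and at 2–2.5 leaf stage compound in acetone/Tween 80 water was dropped on the water surface at 0.2 kg/ha. Plants were kept in a glasshouse and scored visually on day 21 from 0 (<10% growth inhibition) to 5 (≥90% or complete withering).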

Scirpus juncoides = experiment: Test for Herbicidal Effect in Flooding Treatment (#1), SCIJU; conditions: flooding treatment at seeding, dose 2 kg/ha, visual observation on day 21
Summary of the method: (§1)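 Visual scores from 0 (<10% inhibition) to 5 (≥90% or complete withering) were taken 21 days after treatment of glasshouse-grown plants. Seeds were sown in soil flooded for 24 h beforehand, and compound was applied dropwise onto the surface at 2 kg/ha as an acetone solution diluted in water with Tween 80.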

[2] = tested on: Echinochloa crus-galli (L.) P. Beauv. var. formosensis Ohwi; experiment: Test for Herbicidal Effect in Flooding Treatment (#1), ECHDG; conditions: flooding treatment at seeding, dose 2 kg/ha, visual observation on day 21
Summary of the method: as §1

Cyperus microiria = experiment: Test for Herbicidal Effect in Flooding Treatment (#1), CYMIC; conditions: flooding treatment at seeding, dose 2 kg/ha, visual observation on day 21
Description: (#1) Test for Herbicidal Effect in Flooding Treatment: Styrol cups each having an opening diameter of 8 cm (about 52 cm^2) were respectively filled with soil (45 ml) which had been passed through a sieve (2 mm). Water (about 115 ml) was mixed with the soil such that the soil was flooded. After the soil stood still for 24 hours, Monochoria vaginalis, Echinochloa crus-galli (L.) P. Beauv. var. formosensis Ohwi, Cyperus difformis (umbrella sedge), and Scirpus juncoides were seeded. Each of the compounds of the present invention was dissolved in acetone, and the obtained product was then diluted with water containing Tween 80®. Each of the resultant chemical solutions was dropped on the entire surface of an associated one of treatment sections, so that each section was treated with 1 ml of the respective chemical solution (a dose of 2 kg/ha). After the treatment, the plants were grown in a glasshouse. On day 21, a survey was conducted on the herbicidal activity by visual observation, and evaluation was made according to the following criteria. 0: Growth inhibition effect is less than 10%. 1: Growth inhibition effect is equal to or greater than 10%, and less than 30%. 2; Growth inhibition effect is equal to or greater than 30%, and less than 50%. 3: Growth inhibition effect equal to or greater than 50%, and less than 70%. 4: Growth inhibition effect is equal to or greater than 70%, and less than 90%. 5: Growth inhibition effect is equal to or greater than 90%, or complete withering is achieved. ECHDG=Echinochloa crus-galli (L.) P. Beauv. var. formosensis Ohwi, MONVA=Monochoria vaginalis, SCIJU=Scirpus juncoides, CYMIC=Cyperus microiria.

Compound	ECHDG (2-2.5L) #2 herbicidal effect (growth inhibition grade) [1]	SCIJU #1 herbicidal effect (growth inhibition grade) (Scirpus juncoides)	ECHDG #1 herbicidal effect (growth inhibition grade) [2]	CYMIC #1 herbicidal effect (growth inhibition grade) (Cyperus microiria)	inhibition at 200 g/ha ([1]; Echinochloa crus-galli, 504 h, flooding treatment (#2), ECHDG at 2-2.5 leaf stage, dose of 0.2 kg/ha, day 21, visual observation, read-out: growth inhibition effect)
CCOc1ccc(C)cc1CS(=O)(=O)c1ncc(Cl)s1 [Compound 1C-18]	5 (Growth inhibition effect is equal to or greater than 90%, or complete withering is achieved)	5 (Growth inhibition effect is equal to or greater than 90%, or complete withering is achieved)	5 (Growth inhibition effect is equal to or greater than 90%, or complete withering is achieved)	5 (Growth inhibition effect is equal to or greater than 90%, or complete withering is achieved)	–
CCOc1cccc(Cl)c1CS(=O)(=O)c1ncc(Cl)s1 [Compound 1C-20]	5 (Growth inhibition effect is equal to or greater than 90%, or complete withering is achieved)	5 (Growth inhibition effect is equal to or greater than 90%, or complete withering is achieved)	5 (Growth inhibition effect is equal to or greater than 90%, or complete withering is achieved)	5 (Growth inhibition effect is equal to or greater than 90%, or complete withering is achieved)	≥ 90%
CCOc1c(Br)cc(Cl)cc1CS(=O)(=O)c1ncc(Cl)s1 [Compound 1C-24]	5 (Growth inhibition effect is equal to or greater than 90%, or complete withering is achieved)	5 (Growth inhibition effect is equal to or greater than 90%, or complete withering is achieved)	5 (Growth inhibition effect is equal to or greater than 90%, or complete withering is achieved)	5 (Growth inhibition effect is equal to or greater than 90%, or complete withering is achieved)	–
CCOc1c(Cl)cc(Cl)c(Cl)c1CS(=O)(=O)c1ncc(Cl)s1 [Compound 1C-34]	4 (Growth inhibition effect is equal to or greater than 70%, and less than 90%)	5 (Growth inhibition effect is equal to or greater than 90%, or complete withering is achieved)	5 (Growth inhibition effect is equal to or greater than 90%, or complete withering is achieved)	5 (Growth inhibition effect is equal to or greater than 90%, or complete withering is achieved)	–
O=S(=O)(Cc1ccccc1OC(F)(F)F)c1ncc(Cl)s1 [Compound 1C-46]	5 (Growth inhibition effect is equal to or greater than 90%, or complete withering is achieved)	5 (Growth inhibition effect is equal to or greater than 90%, or complete withering is achieved)	5 (Growth inhibition effect is equal to or greater than 90%, or complete withering is achieved)	5 (Growth inhibition effect is equal to or greater than 90%, or complete withering is achieved)	–
COc1cccc(CS(=O)(=O)c2ncc(Cl)s2)c1C [Compound 1C-67]	5 (Growth inhibition effect is equal to or greater than 90%, or complete withering is achieved)	5 (Growth inhibition effect is equal to or greater than 90%, or complete withering is achieved)	5 (Growth inhibition effect is equal to or greater than 90%, or complete withering is achieved)	5 (Growth inhibition effect is equal to or greater than 90%, or complete withering is achieved)	–
COc1cc(CS(=O)(=O)c2ncc(Cl)s2)ccc1C [Compound 1C-68]	4 (Growth inhibition effect is equal to or greater than 70%, and less than 90%)	5 (Growth inhibition effect is equal to or greater than 90%, or complete withering is achieved)	5 (Growth inhibition effect is equal to or greater than 90%, or complete withering is achieved)	5 (Growth inhibition effect is equal to or greater than 90%, or complete withering is achieved)	–
COc1ccc(Cl)c(CS(=O)(=O)c2ncc(Cl)s2)c1F [Compound 1C-71]	5 (Growth inhibition effect is equal to or greater than 90%, or complete withering is achieved)	5 (Growth inhibition effect is equal to or greater than 90%, or complete withering is achieved)	5 (Growth inhibition effect is equal to or greater than 90%, or complete withering is achieved)	5 (Growth inhibition effect is equal to or greater than 90%, or complete withering is achieved)	–
COc1ccc(F)c(CS(=O)(=O)c2ncc(Cl)s2)c1Cl [Compound 1C-72]	5 (Growth inhibition effect is equal to or greater than 90%, or complete withering is achieved)	5 (Growth inhibition effect is equal to or greater than 90%, or complete withering is achieved)	5 (Growth inhibition effect is equal to or greater than 90%, or complete withering is achieved)	5 (Growth inhibition effect is equal to or greater than 90%, or complete withering is achieved)	–
COc1c(F)c(F)cc(CS(=O)(=O)c2ncc(Cl)s2)c1F [Compound 1C-74]	3 (Growth inhibition effect equal to or greater than 50%, and less than 70%)	5 (Growth inhibition effect is equal to or greater than 90%, or complete withering is achieved)	5 (Growth inhibition effect is equal to or greater than 90%, or complete withering is achieved)	5 (Growth inhibition effect is equal to or greater than 90%, or complete withering is achieved)	–
CCOc1cc(CS(=O)(=O)c2ncc(Cl)s2)ccc1F [Compound 1C-76]	4 (Growth inhibition effect is equal to or greater than 70%, and less than 90%)	5 (Growth inhibition effect is equal to or greater than 90%, or complete withering is achieved)	5 (Growth inhibition effect is equal to or greater than 90%, or complete withering is achieved)	5 (Growth inhibition effect is equal to or greater than 90%, or complete withering is achieved)	–
CCOc1ccc(Cl)c(CS(=O)(=O)c2ncc(Cl)s2)c1 [Compound 1C-80]	5 (Growth inhibition effect is equal to or greater than 90%, or complete withering is achieved)	5 (Growth inhibition effect is equal to or greater than 90%, or complete withering is achieved)	5 (Growth inhibition effect is equal to or greater than 90%, or complete withering is achieved)	5 (Growth inhibition effect is equal to or greater than 90%, or complete withering is achieved)	–

Reference: patent US20200060276A1, “THIAZOLE COMPOUND AND HERBICIDE” (OAT Agrio Co., Ltd., priority 2017, published 2020)
